What all share (assay type): cell-based, human
For test [1], the system named is p-ERK in NCI-H441 cells (KRAS G12V mutation). Nature of the test: Cell p-ERK assay (HTRF) in NCI-H441 cells. Particulars: NCI-H441 cells, 3 h compound incubation, HTRF p-ERK T202/Y204, read-out: H441 p-ERK IC50. Summed up: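 In this cellular format, endogenous KRAS-mutant lines grown in RPMI-1640 plus 10% FBS received graded compound concentrations for 3 h at 37 °C. Lysates were incubated 4 h with the phospho-T202/Y204 ERK HTRF antibody pair, and percent inhibition relative to DMSO and blank wells was curve-fitted to give IC50.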

The subject of test [2] is AsPC-1 cells (KRAS G12D mutation). Briefly: 3D cell proliferation assay (CellTiter Glo-3D), AsPC-1. Particulars: medium with 2% FBS, read-out: AsPC-1 AP IC50. From the text:
MIA PaCa-2 cells were purchased from ATCC, Cat. No. CRL-1420; AsPC-1 cells were purchased from ATCC, Cat. No. CRL-1682; NCI-H441 cells were purchased from ATCC, Cat. No. HTB-174: NCI-H1975 cells were purchased from ATCC. Cat. No. CRL-5908; DMEM medium was purchased from Gibco, Cat. No. 11995-065: RPMI-1040 medium was purchased from Gibco. Cat. No. H 18754093; FBS was purchased from Gibco, Cat. No. 10099-141C. penicillin, streptomycin double-antibiotic solution (PS) was purchased from Gibco, Cat. No. 15140-122; Horse serum was purchased from Gibco. Cat. No. 16050130: trypsin (containing EDTA) was purchased from Gibco, Cat. No. 25200-072; DMSO was purchased from VWRAMRESCO, Cat. No. 0231-500ML; 384-well cell culture plates were purchased from Corning, Cat. No. 3830; white-bottomed, opaque 384-well assay plates were purchased from Corning, Cat. No. 3570. CellTiter Glo-3D) kit was purchased from Promega. Cat. No. G9683; cell counter was purchased from CHEMOMETEC, model: NC-200: microplate reader was purchased from PerkinElmer, model: EnVision.
MIA PaCa-2, a human pancreatic cancer cell strain endogenously containing a KRAS^G12C mutation, was cultured in a complete medium containing DMEM+10% FBS+2.5% Horse serum+1% PS. AsPC-1, a human pancreatic cancer cell strain endogenously containing a […] mutation, was cultured in a complete medium containing RPMI-1640+10% FBS+1% PS. NCI-H441 cells, a human lung cancer cell strain endogenously containing a […] mutation, were cultured in a complete medium containing RPMI-1640+10% FBS+1% PS. NCI-H1975, a KRAS wild-type human lung cancer cell strain whose cell proliferation depends on KRAS activity, was cultured in a complete medium containing RPMI-1640+10% FBS+1% PS.
The cells were digested with trypsin (containing EDTA), collected in their respective low-serum complete media containing 2% FBS (for MIA Paca-2 cell culture: DMEM+2% FBS+0.5% Horse serum+1% PS), and counted. After the cell density was adjusted as required, 200 MIA PaCa-2 cells, 800 AsPC-1 cells, 800 NCI-H441 cells, or 400 NCI-H1975 cells per well were seeded into a 384-well cell culture plate, with the volume of the medium in each well being 45 μL. The cell culture plate was incubated in an incubator at 37° C. with 5% CO2, overnight. A series of 3.16-fold gradient dilutions of a 1000× compound stock solution were prepared with DMSO, and then diluted 100-fold with the complete medium containing 2% FBS described above to give 10- compound stock solutions. On the day after cell seeding, 5 μL of the 10- compound stock solution was added to each cell culture well. As a result, the final concentration of the compound in the cell culture well became 1×, and the DMSO content in the well was 0.1%. In addition to the compound-treated wells described above, cell-containing DMSO control wells (with 5 μL of the complete medium containing 1% DMSO added to each well) and cell-free medium control wells (containing 50 μL of the complete medium with 2% FBS) were also set. The culture plate was incubated in an incubator at 37° C. with 5% CO2 for another 5 days, and then 30 μL of CellTiter-Glo working solution was added to each well. The mixture was well mixed, incubated for 30 min, left to stand at room temperature for 30 min, and then transferred to a white-bottomed, opaque 384-well assay plate at 40 μL/well. The chemiluminescence values (RLU) were measured using a microplate reader, and the cell proliferation inhibition rate for each well was calculated: IR (%)=(RLUDMSO—RLUcompound)/(RLUDMSO−RLUblank)×100%, where RLUDMSO is the average RLU signal value from the DMSO control well samples, RLUblank is the average RLU signal value from the medium control well samples, and RLUcompound is the RLU signal value from the compound-treated well samples. […]

A further test deals with NCI-H441 cells. Nature of the test: 3D cell proliferation assay (CellTiter Glo-3D), NCI-H441. Conditions: medium with 2% FBS, read-out: H441 AP IC50. Summed up: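 Proliferation of the KRAS-mutant lines NCI-H441 and AsPC-1 is measured over 5 days of compound treatment in medium with 2% FBS. Inhibition is computed from luminescence relative to DMSO and cell-free controls, and IC50 comes from a four-parameter curve.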

Setting [3] is: 3D cell proliferation (CellTiter Glo-3D).
[4] abbreviates: Homo sapiens, ASPC1, 3D cell proliferation (CellTiter Glo-3D).
[5] abbreviates: Homo sapiens, NCI-H441, 3D cell proliferation (CellTiter Glo-3D).

Like-named read-outs stand apart in the source and are kept apart here.

Take `CCn1c(-c2cc(C(C)N3CCN(C)CC3)cnc2[C@H](C)OC)c2c3cc(ccc31)-c1csc(n1)C[C@H](NC(=O)[C@H]1[C@H](C)[C@@H]1C)C(=O)N1CCC[C@H](N1)C(=O)OCC1(CC1)C2` (stereo partly drawn) [Compound Z456]: the IC50 in test [1] was 61.3 nM; in test [2] (setting [3]), 151 nM; with NCI-H441 cells (setting [3]) it was 125 nM.

Turning to `CCn1c(-c2cccnc2[C@H](C)OC)c2c3cc(ccc31)-c1csc(n1)C[C@H](NC(=O)C(C)(C)F)C(=O)N1CCC[C@H](N1)C(=O)OCC(C)(C)C2` (single isomer, unassigned) [Compound Z1], the values for the IC50 (in test [2] (setting [4]); with NCI-H441 cells (setting [5])) were 565 nM and 446 nM, respectively.

Take `CCn1c(-c2cc(C#CCN3CCC(F)(F)CC3)cnc2[C@H](C)OC)c2c3cc(ccc31)-c1csc(n1)C[C@H](Nc1nnc3cc(C)ccn13)C(=O)N1CCC[C@H](N1)C(=O)OCC(C)(C)C2` (atropisomer, axis not shown; (Ra)) [Compound Z958, (6^3S,4S,Z)—(Ra)-1-(5-(3-(4,4-difluoropiperidin-1-yl)prop-1-yn-1-yl)-2-((S)-1-methoxyethyl)pyridin-3-yl)-1^1-ethyl-10,10-dimethyl-4-((7-methyl-[1,2,4]triazolo[4,3-a]pyridin-3-yl)amino)-6^1,6^2,6^3,6^4,6^5,6^6-hexahydro-1^1H-8-oxa-2(4,2)-thiazola-1(5,3)-indola-6(1,3)-pyridazinacycloundecaphane-5,7-dione]: the IC50 came out at 5.78 nM in test [1] (Homo sapiens, NCI-H441, 3 h); 6.12 nM in test [2] (setting [4]); 4.93 nM with NCI-H441 cells (setting [5]).

For `CCn1c(-c2cc(C#CCN3CC(C#N)C3)cnc2[C@H](C)OC)c2c3cc(ccc31)-c1csc(n1)C[C@H](Nc1nnc3cc(C)ccn13)C(=O)N1CCC[C@H](N1)C(=O)OCC(C)(C)C2` (atropisomer, axis not shown; (Ra)) [Compound Z974, 1-(3-(5-((6^3S,4S,Z)-1^1-ethyl-10,10-dimethyl-4-((7-methyl-[1,2,4]triazolo[4,3-a]pyridin-3-yl)amino)-5,7-dioxo-6^1,6^2,6^3,6^4,6^5,6^6-hexahydro-1^1H-8-oxa-2(4,2)-thiazola-1(5,3)-indola-6(1,3)-pyridazinacycloundecaphane-1^2-yl)-6-(Ra)—((S)-1-methoxyethyl)pyridin-3-yl)prop-2-yn-1-yl)azetidine-3-carbonitrile], the 50% inhibitory concentration (IC50) in test [1] (Homo sapiens, NCI-H441, 3 h) was 2.12 nM; in test [2] (setting [4]), 5.6 nM; in the test with NCI-H441 cells (setting [5]) it was 3.46 nM.

For `CCn1c(-c2cc(C#CCN3CCOC[C@@H](O)C3)cnc2[C@H](C)OC)c2c3cc(ccc31)-c1csc(n1)C[C@H](Nc1nnc3cc(C)ccn13)C(=O)N1CCC[C@H](N1)C(=O)OCC(C)(C)C2` (atropisomer, axis not shown; (Ra)) [Compound Z966, (6^3S,4S,Z)-1^1-ethyl-(Ra)-1^2-(5-(3-((S)-6-hydroxy-1,4-oxazepan-4-yl)prop-1-yn-1-yl)-2-((S)-1-methoxyethyl)pyridin-3-yl)-10,10-dimethyl-4-((7-methyl-[1,2,4]triazolo[4,3-a]pyridin-3-yl)amino)-6^1,6^2,6^3,6^4,6^5,6^6-hexahydro-1^1H-8-oxa-2(4,2)-thiazola-1(5,3)-indola-6(1,3)-pyridazinacycloundecaphane-5,7-dione], the IC50 came out at 9.41 nM in test [2] (setting [4]) and 4.91 nM in the test on NCI-H441 cells (setting [5]).

As for `CCn1c(-c2cc(N3CCN(C)CC3)cnc2[C@H](C)OC)c2c3cc(ccc31)-c1csc(n1)C[C@H](Nc1ccccn1)C(=O)N1CCC[C@H](N1)C(=O)OCC(C)(C)C2` (atropisomer, axis not shown; (Ra)) [Compound Z69, (6^3S,Z)-1^1-ethyl-(Ra)-1^2-(2-((S)-1-methoxyethyl)-5-(4-methylpiperazin-1-yl)pyridin-3-yl)-10,10-dimethyl-4-(pyridin-2-ylamino)-6^1,6^2,6^3,6^4,6^5,6^6-hexahydro-1^1H-8-oxa-2(4,2)-thiazola-1(5,3)-indola-6(1,3)-pyridazinacycloundecaphane-5,7-dione], the IC50 in test [2] (setting [3]) worked out at 347 nM; in the test on NCI-H441 cells (setting [3]) it was 399 nM.

Turning to `CCn1c(-c2cc(C#CCN3CCC(=O)N(C)CC3)cnc2[C@H](C)OC)c2c3cc(ccc31)-c1csc(n1)C[C@H](Nc1nnc3cc(C)ccn13)C(=O)N1CCC[C@H](N1)C(=O)OCC(C)(C)C2` (atropisomer, axis not shown; (Ra)) [Compound Z957, (6^3S,4S2)-1-(5-(3-(4-methyl-1,4-diazepan-5-one-1-yl)prop-1-yn-1-yl)-(Ra)-2-((S)-1-methoxyethyl)pyridin-3-yl)-1^1-ethyl-10,10-dimethyl-4-((7-methyl-[,2,4]triazolo[4,3-a]pyridin-3-yl)amino)-6^1,6^2,6^3,6^4,6^5,6^6-hexahydro-1^1H-8-oxa-2(4,2)-thiazola-1(5,3)-indola-6(1,3)-pyridazinacycloundecaphane-5,7-dione], the IC50 came to 2.63 nM in test [1], 6.69 nM in test [2] (setting [3]) and 2.47 nM with NCI-H441 cells (setting [3]).

With `CCn1c(-c2cc(C#CCN3CCCOCC3)cnc2[C@H](C)OC)c2c3cc(ccc31)-c1csc(n1)C[C@H](Nc1nnc3cc(C)ccn13)C(=O)N1CCC[C@H](N1)C(=O)OCC(C)(C)C2` [Compound Z955, (6^3S,4S2)-1^2-(5-(3-(1,4-oxazepan-4-yl)prop-1-yn-1-yl)-2-((S)-1-methoxyethyl)pyridin-3-yl)-1^1-ethyl-10,10-dimethyl-4-((7-methyl-[1,2,4]triazolo[4,3-a]pyridin-3-yl)amino)-6^1,6^2,6^3,6^4,6^5,6^6-hexahydro-1^1H-8-oxa-2(4,2)-thiazola-1(5,3)-indola-6(1,3)-pyridazinacycloundecaphane-5J7-dione], the IC50 in test [1] (Homo sapiens, NCI-H441, 3 h) came out at 2.6 nM; in test [2] (setting [4]), 4.82 nM; with NCI-H441 cells (setting [5]), 2.96 nM.

As for `CCn1c(-c2cc(C#CC34CCCN3CCC4)cnc2[C@H](C)OC)c2c3cc(ccc31)-c1csc(n1)C[C@H](NC(=O)[C@H]1[C@H](C)[C@@H]1C)C(=O)N1CCC[C@H](N1)C(=O)OCC(C)(C)C2` (atropisomer, axis not shown; (Ra)) [Compound Z794, (1r,2R,3S)—N-((6^3S,4S,Z)—(Ra)-1^2-ethyl-1^2-(2-((S)-1-methoxyethyl)-5-((tetrahydro-1H-pyrrolizin-7a(5H)-yl)ethynyl)pyridin-3-yl)-10,10-dimethyl-5,7-dioxo-6^1,6^2,6^3,6^4,6^5,6^6-hexahydro-1^1H-8-oxa-2(4,2)-thiazola-1(5,3)-indola-6(1,3)-pyridazinacycloundecaphane-4-yl)-2,3-dimethylcyclopropane-1-carboxamide], the IC50 in test [1] (Homo sapiens, NCI-H441, 3 h) was 0.49 nM; in test [2] (setting [4]), 2.07 nM; in the test with NCI-H441 cells (setting [5]), 0.66 nM.
